# Results from patent US20220162167A1, “SUBSTITUTED BICYCLIC AND TETRACYCLIC QUINONES AND USE THEREOF AS ANTI-CANCER AGENTS” (THE REGENTS OF THE UNIVERSITY OF MICHIGAN, priority 2019, published 2022).
# Columns and labels:
# Format in all cases: cell-based
# HS 578T = assay: NCI60 growth inhibition, HS 578T; details: Breast Cancer
# Protocol: (§1) Representative compounds were tested in 60 cell lines (NCI60) at the National Cancer Institute, Developmental Therapeutics Program.
# (§2) Representative compounds were tested in a panel of 60 cancer cells (NCI 60) at the National Cancer Institute. Growth inhibition are shown in table 2, table 3, table 4, table 5, and FIG. 1, FIG. 2, FIG. 3, FIG. 4, FIG. 5.
# HOP-62 = assay: NCI60 growth inhibition, HOP-62; details: Non-Small Cell Lung Cancer; also: test concentration or dose not given here
# Protocol: as §1, §2
# KM12 = assay: NCI60 growth inhibition, KM12; details: Colon Cancer; also: test concentration or dose not given here
# Protocol: as §1, §2
# U251 = assay: NCI60 growth inhibition, U251; details: CNS Cancer
# Protocol: as §1, §2
# NCI/ADR-RES = assay: NCI60 growth inhibition, NCI/ADR-RES; details: Ovarian Cancer
# Protocol: as §1, §2
# HT29 = assay: NCI60 growth inhibition, HT29; details: Colon Cancer
# Protocol: as §1, §2
# M14 = assay: NCI60 growth inhibition, M14; details: Melanoma
# Protocol: as §1, §2
# SK-MEL-2 = assay: NCI60 growth inhibition, SK-MEL-2; details: Melanoma; also: test concentration or dose not given here
# Protocol: as §1, §2
# SW-620 = assay: NCI60 growth inhibition, SW-620; details: Colon Cancer; also: test concentration or dose not given here
# Protocol: as §1, §2
# MCF7 = assay: NCI60 growth inhibition, MCF7; details: Breast Cancer
# Protocol: as §1, §2
# MDA-MB-435 = assay: NCI60 growth inhibition, MDA-MB-435; details: Melanoma
# Protocol: as §1, §2
# K-562 = assay: NCI60 growth inhibition, K-562; details: Leukemia
# Protocol: as §1, §2
# SNB-75 = assay: NCI60 growth inhibition, SNB-75; details: CNS Cancer; also: test concentration or dose not given here
# Protocol: as §1, §2
# SF-268 = assay: NCI60 growth inhibition, SF-268; details: CNS Cancer; also: test concentration or dose not given here
# Protocol: as §1, §2
# NCI-H460 = assay: NCI60 growth inhibition, NCI-H460; details: Non-Small Cell Lung Cancer
# Protocol: as §1, §2
# CCRF-CEM = assay: NCI60 growth inhibition, CCRF-CEM; details: Leukemia
# Protocol: as §1, §2
# OVCAR-5 = assay: NCI60 growth inhibition, OVCAR-5; details: Ovarian Cancer
# Protocol: as §1, §2
# HOP-92 = assay: NCI60 growth inhibition, HOP-92; details: Non-Small Cell Lung Cancer
# Protocol: as §1, §2
# TK-10 = assay: NCI60 growth inhibition, TK-10; details: Renal Cancer
# Protocol: as §1, §2
# OVCAR-4 = assay: NCI60 growth inhibition, OVCAR-4; details: Ovarian Cancer; also: test concentration or dose not given here
# Protocol: as §1, §2
# A498 = assay: NCI60 growth inhibition, A498; details: Renal Cancer; also: test concentration or dose not given here
# Protocol: as §1, §2
# EKVX = assay: NCI60 growth inhibition, EKVX; details: Non-Small Cell Lung Cancer
# Protocol: as §1, §2
# A549/ATCC = assay: NCI60 growth inhibition, A549/ATCC; details: Non-Small Cell Lung Cancer
# Protocol: as §1, §2
# PC-3 = assay: NCI60 growth inhibition, PC-3; details: Prostate Cancer
# Protocol: as §1, §2
# T-47D = assay: NCI60 growth inhibition, T-47D; details: Breast Cancer
# Protocol: as §1, §2
# HL-60(TB) = assay: NCI60 growth inhibition, HL-60(TB); details: Leukemia
# Protocol: as §1, §2
# RPMI-8226 = assay: NCI60 growth inhibition, RPMI-8226; details: Leukemia
# Protocol: as §1, §2
# SK-MEL-28 = assay: NCI60 growth inhibition, SK-MEL-28; details: Melanoma
# Protocol: as §1, §2
# CAKI-1 = assay: NCI60 growth inhibition, CAKI-1; details: Renal Cancer; also: test concentration or dose not given here
# Protocol: as §1, §2
# MDA-MB-468 = assay: NCI60 growth inhibition, MDA-MB-468; details: Breast Cancer; also: test concentration or dose not given here
# Protocol: as §1, §2
# SN12C = assay: NCI60 growth inhibition, SN12C; details: Renal Cancer
# Protocol: as §1, §2
# SNB-19 = assay: NCI60 growth inhibition, SNB-19; details: CNS Cancer; also: test concentration or dose not given here
# Protocol: as §1, §2
# NCI-H322M = assay: NCI60 growth inhibition, NCI-H322M; details: Non-Small Cell Lung Cancer
# Protocol: as §1, §2
# HCC-2998 = assay: NCI60 growth inhibition, HCC-2998; details: Colon Cancer
# Protocol: as §1, §2
# SK-OV-3 = assay: NCI60 growth inhibition, SK-OV-3; details: Ovarian Cancer
# Protocol: as §1, §2
# UO-31 = assay: NCI60 growth inhibition, UO-31; details: Renal Cancer
# Protocol: as §1, §2
# HCT-15 = assay: NCI60 growth inhibition, HCT-15; details: Colon Cancer; also: test concentration or dose not given here
# Protocol: as §1, §2
# ACHN = assay: NCI60 growth inhibition, ACHN; details: Renal Cancer
# Protocol: as §1, §2
# IGROV1 = assay: NCI60 growth inhibition, IGROV1; details: Ovarian Cancer
# Protocol: as §1, §2
# MALME-3M = assay: NCI60 growth inhibition, MALME-3M; details: Melanoma
# Protocol: as §1, §2
# SF-295 = assay: NCI60 growth inhibition, SF-295; details: CNS Cancer; also: test concentration or dose not given here
# Protocol: as §1, §2
# 786-0 = assay: NCI60 growth inhibition, 786-0; details: Renal Cancer
# Protocol: as §1, §2
# OVCAR-3 = assay: NCI60 growth inhibition, OVCAR-3; details: Ovarian Cancer
# Protocol: as §1, §2
# NCI-H23 = assay: NCI60 growth inhibition, NCI-H23; details: Non-Small Cell Lung Cancer
# Protocol: as §1, §2
# MOLT-4 = assay: NCI60 growth inhibition, MOLT-4; details: Leukemia
# Protocol: as §1, §2
# DU-145 = assay: NCI60 growth inhibition, DU-145; details: Prostate Cancer
# Protocol: as §1, §2
# UACC-257 = assay: NCI60 growth inhibition, UACC-257; details: Melanoma; also: test concentration or dose not given here
# Protocol: as §1, §2
# SK-MEL-5 = assay: NCI60 growth inhibition, SK-MEL-5; details: Melanoma
# Protocol: as §1, §2
# SR = assay: NCI60 growth inhibition, SR; details: Leukemia
# Protocol: as §1, §2
# NCI-H522 = assay: NCI60 growth inhibition, NCI-H522; details: Non-Small Cell Lung Cancer
# Protocol: as §1, §2
# MDA-MB-231/ATCC = assay: NCI60 growth inhibition, MDA-MB-231/ATCC; details: Breast Cancer
# Protocol: as §1, §2
# COLO 205 = assay: NCI60 growth inhibition, COLO 205; details: Colon Cancer
# Protocol: as §1, §2
# RXF 393 = assay: NCI60 growth inhibition, RXF 393; details: Renal Cancer
# Protocol: as §1, §2
# UACC-62 = assay: NCI60 growth inhibition, UACC-62; details: Melanoma; also: test concentration or dose not given here
# Protocol: as §1, §2
# NCI-H226 = assay: NCI60 growth inhibition, NCI-H226; details: Non-Small Cell Lung Cancer; also: test concentration or dose not given here
# Protocol: as §1, §2
# SF-539 = assay: NCI60 growth inhibition, SF-539; details: CNS Cancer
# Protocol: as §1, §2
# HCT-116 = assay: NCI60 growth inhibition, HCT-116; details: Colon Cancer
# Protocol: as §1, §2
# LOX IMVI = assay: NCI60 growth inhibition, LOX IMVI; details: Melanoma
# Protocol: as §1, §2
structure (smiles),measurement,setting,value
"Cc1ccc2c(n1)C(=O)C(Cl)=C(Nc1ccc(N3CCN(C)CC3)cc1)C2=O [Compound 13, 7-chloro-2-methyl-6-((4-(4-methylpiperazin-1-yl)phenyl)amino)quinoline-5,8-dione]",Growth inhibition (% control) GIPRCNT,HS 578T,58 % control
same,Growth inhibition (% control) GIPRCNT,HOP-62,63.65 % control
same,Growth inhibition (% control) GIPRCNT,KM12,92.08 % control
same,Growth inhibition (% control) GIPRCNT,U251,8.466 % control
same,Growth inhibition (% control) GIPRCNT,NCI/ADR-RES,27.61 % control
same,Growth inhibition (% control) GIPRCNT,HT29,66.44 % control
same,Growth inhibition (% control) GIPRCNT,M14,73.83 % control
same,Growth inhibition (% control) GIPRCNT,SK-MEL-2,68.36 % control
same,Growth inhibition (% control) GIPRCNT,SW-620,−69.7878 % control
same,Growth inhibition (% control) GIPRCNT,MCF7,−61.9194 % control
same,Growth inhibition (% control) GIPRCNT,MDA-MB-435,−99.1118 % control
same,Growth inhibition (% control) GIPRCNT,K-562,−12.2778 % control
same,Growth inhibition (% control) GIPRCNT,SNB-75,−53.8363 % control
same,Growth inhibition (% control) GIPRCNT,SF-268,77.72 % control
same,Growth inhibition (% control) GIPRCNT,NCI-H460,97.22 % control
same,Growth inhibition (% control) GIPRCNT,CCRF-CEM,−6.237 % control
same,Growth inhibition (% control) GIPRCNT,OVCAR-5,−7.548 % control
same,Growth inhibition (% control) GIPRCNT,HOP-92,−86.301 % control
same,Growth inhibition (% control) GIPRCNT,TK-10,100.0838 % control
same,Growth inhibition (% control) GIPRCNT,OVCAR-4,−100 % control
same,Growth inhibition (% control) GIPRCNT,A498,100.8258 % control
same,Growth inhibition (% control) GIPRCNT,EKVX,−81.7903 % control
same,Growth inhibition (% control) GIPRCNT,A549/ATCC,97.64 % control
same,Growth inhibition (% control) GIPRCNT,PC-3,68.66 % control
same,Growth inhibition (% control) GIPRCNT,T-47D,−61.1209 % control
same,Growth inhibition (% control) GIPRCNT,HL-60(TB),−46.6759 % control
same,Growth inhibition (% control) GIPRCNT,RPMI-8226,−32.551 % control
same,Growth inhibition (% control) GIPRCNT,SK-MEL-28,30.32 % control
same,Growth inhibition (% control) GIPRCNT,CAKI-1,−100 % control
same,Growth inhibition (% control) GIPRCNT,MDA-MB-468,−84.6413 % control
same,Growth inhibition (% control) GIPRCNT,SN12C,−88.5465 % control
same,Growth inhibition (% control) GIPRCNT,SNB-19,94.6 % control
same,Growth inhibition (% control) GIPRCNT,NCI-H322M,97.35 % control
same,Growth inhibition (% control) GIPRCNT,HCC-2998,95.31 % control
same,Growth inhibition (% control) GIPRCNT,SK-OV-3,89.88 % control
same,Growth inhibition (% control) GIPRCNT,UO-31,−97.3532 % control
same,Growth inhibition (% control) GIPRCNT,HCT-15,70.44 % control
same,Growth inhibition (% control) GIPRCNT,ACHN,−93.75 % control
same,Growth inhibition (% control) GIPRCNT,IGROV1,−83.5269 % control
same,Growth inhibition (% control) GIPRCNT,MALME-3M,−75.4481 % control
same,Growth inhibition (% control) GIPRCNT,SF-295,99.36 % control
same,Growth inhibition (% control) GIPRCNT,786-0,52.18 % control
same,Growth inhibition (% control) GIPRCNT,OVCAR-3,−100 % control
same,Growth inhibition (% control) GIPRCNT,NCI-H23,16.65 % control
same,Growth inhibition (% control) GIPRCNT,MOLT-4,−25.588 % control
same,Growth inhibition (% control) GIPRCNT,DU-145,−18.6864 % control
same,Growth inhibition (% control) GIPRCNT,UACC-257,57.23 % control
same,Growth inhibition (% control) GIPRCNT,SK-MEL-5,10.39 % control
same,Growth inhibition (% control) GIPRCNT,SR,−5.054 % control
same,Growth inhibition (% control) GIPRCNT,NCI-H522,−63.7561 % control
same,Growth inhibition (% control) GIPRCNT,MDA-MB-231/ATCC,−62.773 % control
same,Growth inhibition (% control) GIPRCNT,COLO 205,82.4617 % control
same,Growth inhibition (% control) GIPRCNT,RXF 393,62.78 % control
same,Growth inhibition (% control) GIPRCNT,UACC-62,−49.3593 % control
same,Growth inhibition (% control) GIPRCNT,NCI-H226,105.4813 % control
same,Growth inhibition (% control) GIPRCNT,SF-539,−24.5048 % control
same,Growth inhibition (% control) GIPRCNT,HCT-116,−64.939 % control
same,Growth inhibition (% control) GIPRCNT,LOX IMVI,−95.4404 % control
